# From US7901879B2, “Lactoferrin in the treatment of malignant neoplasms and other hyperproliferative diseases” (Agennix Incorporated, priority 2002, dated 2011)
# Tested on: murine squamous carcinoma cell line (SCCVII)
# Test: SCCVII floor-of-mouth tumor growth, oral rhLF and/or cisplatin (Example 6)
# Assay type: in vivo, immunocompetent C3H mice
# Method: A murine squamous carcinoma cell line (SCCVII) was injected into the floor of the mouth through the neck skin of immunocompetent C3H mice (Day 0). […] Tumors were measured in three dimensions with calipers.
# Tumor-bearing mice were randomized into a control group and seven groups receiving rhLF and/or cisplatin. RhLF (4 mg; 200 mg/Kg) was administered once daily by oral gavage for 8 days on days 5 through 12. Cisplatin was administered as a single dose of 5 mg/Kg given intraperitoneally either at the start of rhLF (day 5), in the middle (day 8) or at the end (day 12) of rhLF therapy. Animals were sacrificed on day 12 post-implantation and the residual tumor masses were measured and processed for later additional analyses.
smiles,measurement,setting,value
"N.N.[Cl][Pt][Cl] [CP, Cisplatin]",TGI (%) Relative to Placebo,"cisplatin 5 mg/kg i.p. on day 5, with rhLF 200 mg/kg oral days 5-12 where combined",68%
same,TGI (%) Relative to Placebo,"cisplatin 5 mg/kg i.p. on day 8, with rhLF 200 mg/kg oral days 5-12 where combined",6%
same,TGI (%) Relative to Placebo,"cisplatin 5 mg/kg i.p. on day 12, with rhLF 200 mg/kg oral days 5-12 where combined",42%
same,TGI (%) Relative to Placebo,"pooled cisplatin day 5, 8 and 12 groups",38%
